From US20080305066A1, “2-C-Substituted Propane-1,3-Dicarbonyl Compounds and Their Use in Neutralising Malodour” (GIVAUDAN SA, priority 2005, published 2008)
Blank lines part the entries; values can stand above or below the compound they belong to.

Experiments:
[1] = Neutralization of propyl mercaptane (headspace GC-MS); conditions: 0.25 ml 4 mM test compound + 0.25 ml 4 mM propyl mercaptane in dimethylsulfoxide/H2O 1:1, room temperature, 3 h, vs blank samples
Procedure: A 23×75 mm-headspace vial is charged with 0.25 ml of a 4 mM-solution of the test compound in dimethylsulfoxide/H2O 1:1. One blank sample containing 0.25 ml of dimethylsulfoxide/H2O 1:1 is prepared per 3 test samples. The vials are sealed with a 20 mm-aluminium seal containing a rubber septum. At 15 min-intervals (which is the time of 1 GC-analysis run) 0.25 ml of a 4 mM-solution of propyl mercaptane in dimethylsulfoxide/H2O 1:1 is added to each sample via cannula.
The samples are left at room temperature for 3 h, then submitted to headspace analysis using a headspace auto sampler connected to a GC-MS apparatus. Per sample 250 μl of headspace is injected. The peak areas (MS-ion current) of propyl mercaptane is compared to the averaged value from the blank samples to calculate the reduction of headspace concentration.

[2] = Neutralization of human sweat in aqueous environment, two chamber sample (headspace GC-MS); conditions: 5.0 μmol test compound on viscose filter, 16 h at 35° C., vs blank samples; for % Headspace reduction of malodours compounds: 3-mercapto-1-butanol: aqueous 3-mercapto-1-butanol (17 mM) with 3-methyl hexanoic acid (23 mM); for % Headspace reduction of malodours compounds: 3-methyl hexanoic acid: aqueous 3-methyl hexanoic acid (23 mM) with 3-mercapto-1-butanol (17 mM)
Procedure: A two chamber sample was prepared as depicted in FIG. 1. It is composed of the headspace vial (1′) described in example 26 as the outer containment and a standard HPLC-auto sampler vial (2′) as the inner containment. The test compound (5.0 μmol) is absorbed on viscose filter (3′) (applied as CH2Cl2-solution and let evaporate). An amount of 100 ul of an aqueous solution of 3-methyl hexanoic acid (23 mM) and 3-mercapto-1-butanol (17 mM), is placed on the bottom of the inner vial (2′). A screw cap containing the filter (3′) is screwed tightly on the HPLC-vial (2′), which is placed in the headspace vial (1′). The headspace vial is closed with an aluminium seal containing a rubber septum (5′). Blank samples containing an empty filter (3′) and the aqueous solution of 3-methyl hexanoic acid and 3-mercapto-1-butanol in the inner vial as described above are prepared (1 blank per 3 test samples). The samples are left standing for 16 h at 35° C., then submitted to headspace analysis as described in example 26.
The malodourant compounds (3-methyl hexanoic acid and 3-mercapto-1-butanol) diffuse through the filter into the outer volume (6′). Therefore a compound of formula 1 (neutralizing substance) applied on the filter (3′) will reduce the headspace concentration of the sweat malodourants in the outer volume compared to the blank samples.

[3] = Olfactory evaluation against sweat-malodour reconstitution (panel test); conditions: 50 μl of 1% solution in ethanol on malodour treated cotton swatch; LMS rating, expert panel of 20 assessors; relative to swatch without test compound
Procedure: An ethanolic solution of axilla-malodour reconstitution is applied on a 1×1 cm cotton swatch (100 ∥l, 0.1% wt/wt), then 50 μl of the test compound (1% solution in ethanol) are dosed to the malodour treated swatches. The malodour intensity is rated on a LMS (labelled magnitude scale) by an expert panel of 20 assessors. The results are then expressed in % reduction relative to malodour of a swatch without adding a test compound.

Structure (SMILES): CCCC(=O)/C(=C/C(=O)OCC)C(=O)OCC
% Headspace Reduction [1]: 100%

Structure (SMILES): CCOC(=O)C(O)C(C(C)=O)C(=O)OC(C)(C)C (stereo not shown)
% Headspace Reduction [1]: 45%

Structure (SMILES): CC(=O)C(=CC(C)CCC=C(C)C)C(C)=O (stereo not shown)
% Headspace Reduction [1]: 8%

Structure (SMILES): CCOC(=O)C(O)C(C(C)=O)C(=O)OCC (stereo not shown)
% Headspace Reduction [1]: 62%

Structure (SMILES): CCOC(=O)C(C)=C(C(=O)OCC)C(=O)OCC
% Headspace Reduction [1]: 20%

Structure (SMILES): CC(=O)C(=CC(C)C)C(C)=O
% Headspace Reduction [1]: 34%

Structure (SMILES): CCOC(=O)C(OCC)C(C(C)=O)C(C)=O (stereo not shown)
% Headspace Reduction [1]: 82%

Structure (SMILES): CCOC(=O)C(OCC)C(C(C)=O)C(=O)c1ccccc1 (stereo not shown)
% Headspace Reduction [1]: 22%

Structure (SMILES): CCOC(=O)C(OC)C(C(C)=O)C(=O)OCC (stereo not shown)
% Headspace Reduction [1]: 54%

Structure (SMILES): CCCC(=O)C(C(=O)OCC)C(OCC)C(=O)OCC (stereo not shown)
% Headspace Reduction [1]: 38%

Structure (SMILES): CCOC(=O)C(O)C(C(=O)OCC)C(=O)c1ccccc1 (stereo not shown)
% Headspace Reduction [1]: 20%

Structure (SMILES): CCOC(=O)C(OCC)C(C(=O)OCC)C(=O)c1ccccc1 (stereo not shown)
% Headspace Reduction [1]: 10%

Structure (SMILES): CCOC(=O)C(O)C(C(=O)OC)C(=O)C(C)(C)C (stereo not shown)
% Headspace Reduction [1]: 15%

Structure (SMILES): CCOC(=O)/C=C(\C(C)=O)C(=O)c1ccccc1
% Headspace Reduction [1]: 100%

Structure (SMILES): CCOC(=O)/C=C(\C(=O)OC)C(=O)C(C)(C)C
% Headspace Reduction [1]: 82%

Structure (SMILES): CCCC(=O)/C(C(=O)OCC)=C(\O)C(=O)OCC
% Headspace Reduction [1]: 15%

Structure (SMILES): CCCCCCOC(=O)/C=C/C(=O)OCCCCCC [DHF, Dihexylfumarate, reference compound]
% Headspace Reduction [1]: 5% | % Headspace reduction of malodours compounds: 3-mercapto-1-butanol [2]: 10% | % Headspace reduction of malodours compounds: 3-methyl hexanoic acid [2]: 0% | % Reduction of axilla malodour intensity in panel test [3]: 68%

melting point: 126 to 128 °C
Structure (SMILES): CCOc1cc(C=C(C(C)=O)C(C)=O)ccc1O [Example 7]

Structure (SMILES): CCOC(=O)/C=C(/C(C)=O)C(=O)OCC [drawing 36]
% Headspace Reduction [1]: 100%

Structure (SMILES): CCOC(=O)C=C(C(C)=O)C(C)=O [drawing 38]
% Headspace Reduction [1]: 100%

Structure (SMILES): CCOC(=O)C(OCC)C(C(C)=O)C(=O)OCC (stereo not shown) [drawing 42]
% Headspace Reduction [1]: 64%

Structure (SMILES): CCOC(=O)/C=C(\C(=O)OCC)C(=O)c1ccccc1 [drawing 50]
% Headspace Reduction [1]: 100%

Structure (SMILES): CCCCCCCC=C(C(=O)OCC)C(=O)OCC [drawing 55]
% Headspace reduction of malodours compounds: 3-mercapto-1-butanol [2]: 22% | % Headspace reduction of malodours compounds: 3-methyl hexanoic acid [2]: 0%

Structure (SMILES): CCCCCCC/C=C(/C(C)=O)C(=O)OCC [drawing 56]
% Headspace reduction of malodours compounds: 3-mercapto-1-butanol [2]: 35% | % Headspace reduction of malodours compounds: 3-methyl hexanoic acid [2]: 10%

Structure (SMILES): CCOC(=O)/C=C(/C(C)=O)C(=O)OCC [drawing 57]
% Headspace reduction of malodours compounds: 3-mercapto-1-butanol [2]: 98% | % Headspace reduction of malodours compounds: 3-methyl hexanoic acid [2]: 10%

Structure (SMILES): CCOC(=O)C=C(C(C)=O)C(C)=O [drawing 58]
% Headspace reduction of malodours compounds: 3-mercapto-1-butanol [2]: 100% | % Headspace reduction of malodours compounds: 3-methyl hexanoic acid [2]: 0%

Structure (SMILES): CCOC(=O)C(OCC)C(C(C)=O)C(=O)OCC (stereo not shown) [drawing 59]
% Headspace reduction of malodours compounds: 3-mercapto-1-butanol [2]: 100% | % Headspace reduction of malodours compounds: 3-methyl hexanoic acid [2]: 0%

Structure (SMILES): CCOC(=O)/C=C(\C(=O)OCC)C(=O)c1ccccc1 [drawing 60]
% Headspace reduction of malodours compounds: 3-mercapto-1-butanol [2]: 85% | % Headspace reduction of malodours compounds: 3-methyl hexanoic acid [2]: 28%

Structure (SMILES): CCOc1cc(C=C(C(C)=O)C(C)=O)ccc1O [drawing 61]
% Headspace reduction of malodours compounds: 3-mercapto-1-butanol [2]: 41% | % Headspace reduction of malodours compounds: 3-methyl hexanoic acid [2]: 9%

Structure (SMILES): CCCCCCCC=C(C(=O)OCC)C(=O)OCC [drawing 62]
% Reduction of axilla malodour intensity in panel test [3]: 59%

Structure (SMILES): CCCCCCC/C=C(/C(C)=O)C(=O)OCC [drawing 63]
% Reduction of axilla malodour intensity in panel test [3]: 82%

Structure (SMILES): CCOC(=O)/C=C(/C(C)=O)C(=O)OCC [drawing 64]
% Reduction of axilla malodour intensity in panel test [3]: 76%

Structure (SMILES): CCOC(=O)C(OCC)C(C(C)=O)C(=O)OCC (stereo not shown) [drawing 65]
% Reduction of axilla malodour intensity in panel test [3]: 67%
